Laboratory results: patent US20080221100A1, “SOLUBLE EPOXIDE HYDROLASE INHIBITORS” (Arete Therapeutics, Inc., priority 2006, published 2008)

Experiments:
[1] = system: soluble epoxide hydrolase (sEH); experiment: Fluorescent assay for mouse and human soluble epoxide hydrolase (CMNPC substrate); type: biochemical, mouse or human, not specified
Excerpt: Fluorescent Assay for Mouse and Human Soluble Epoxide Hydrolase Recombinant mouse sEH (MsEH) and human sEH (HsEH) were produced in a baculovirus expression system as previously reported. Grant et al., J. Biol. Chem., 268:17628-17633 (1993); Beetham et al., Arch. Biochem. Biophys., 305:197-201 (1993). The expressed proteins were purified from cell lysate by affinity chromatography. Wixtrom et al., Anal. Biochem., 169:71-80 (1988). Protein concentration was quantified using the Pierce BCA assay using bovine serum albumin as the calibrating standard. […] They contained no detectable esterase or glutathione transferase activity which can interfere with the assay. The assay was also evaluated with similar results in crude cell lysates or homogenate of tissues. The IC50s for each inhibitor were determined according to the following procedure: Substrate: [drawing 155] […] Jones P. D. et al.; Analytical Biochemistry 2005; 343: pp. 66-75) Solutions: Bis/Tris HCl 25 mM pH 7.0 containing 0.1 mg/mL of BSA (buffer […] at 0.25 mM in DMSO. Mother solution of enzyme in buffer A (Mouse sEH at 6 μg/mL and Human sEH at 5 μg/mL). Inhibitor dissolved in DMSO at the appropriate concentration. Protocol: In a black 96 well plate, fill all the wells with 150 μL of buffer A. Add 2 μL of DMSO in well A2 and A3, and then add 2 μL of inhibitor solution in A1 and A4 through A12. Add 150 μL of buffer A in row A, then mix several time and transfer 150 μL to row B. Repeat this operation up to row H. The 150 μL removed from row H is discarded. Add 20 μL of buffer A in column 1 and 2, then add 20 μL of enzyme solution to column 3 to 12. Incubate the plate for 5 minutes in the plate reader at 30° C. During incubation prepare the working solution of substrate by mixing 3.68 mL of buffer A (4×0.920 mL) with 266 μL (2×133 μL) of substrate solution). At t=0, add 30 μL of working substrate solution with multi-channel pipette labeled “Briggs 303” and start the reading ([S]final: 5 μM). Read with ex: 330 nm (20 nm) and em: 465 nm (20 nm) every 30 second for 10 minutes. The velocities are used to analyze and calculate the IC50s.

| Compound | melting point [°C] | % Inhibition ([1]; Conc 500 nM) [%] | % Inhibition ([1]; Conc 50 nM) [%] | % Inhibition ([1]; Conc 200 nM) [%] | % Inhibition ([1]; Conc 2000 nM) [%] |
| --- | --- | --- | --- | --- | --- |
| CC(=O)N1CCC(NC(=O)Nc2ccc(F)cc2)CC1 [Compound 21, 1-(1-Acetyl-piperidin-4-yl)-3-(4-fluoro-phenyl)-urea] | 146 to 148 | 74 | – | – | – |
| O=C(Nc1cccc(F)c1)NC1CCN(S(=O)(=O)c2ccccc2)CC1 [Compound 22, 1-(1-Benzenesulfonyl-piperidin-4-yl)-3-(3-fluoro-phenyl)-urea] | 186 to 188 | – | 82 | – | – |
| O=C(Nc1cccc(F)c1)NC1CCN(S(=O)(=O)c2ccc(Cl)cc2)CC1 [Compound 23, 1-[1-(4-Chloro-benzenesulfonyl)-piperidin-4-yl]-3-(3-fluoro-phenyl)-urea] | 245 to 248 | – | 91 | – | – |
| CS(=O)(=O)N1CCC(NC(=O)Nc2ccc(F)cc2)CC1 [Compound 27, 1-(4-Fluoro-phenyl)-3-(1-methanesulfonyl-piperidin-4-yl)-urea] | 186 to 188 | – | 80 | – | – |
| O=C(Nc1cccc(F)c1)NC1CCN(S(=O)(=O)c2cccc(C(F)(F)F)c2)CC1 [Compound 28, 1-(3-Fluoro-phenyl)-3-[1-(3-trifluoromethyl-benzenesulfonyl)-piperidin-4-yl]-urea] | 86 to 88 | – | 94 | – | – |
| O=C(Nc1cccc(C(F)(F)F)c1)NC1CCN(S(=O)(=O)c2ccc(Cl)cc2)CC1 [Compound 30, 1-[1-(4-Chloro-benzenesulfonyl)-piperidin-4-yl]-3-(3-trifluoromethyl-phenyl)-urea] | 116 to 118 | – | 90 | – | – |
| CS(=O)(=O)N1CCC(NC(=O)Nc2cccc(F)c2)CC1 [Compound 31, 1-(3-Fluoro-phenyl)-3-(1-methanesulfonyl-piperidin-4-yl)-urea] | 212 to 214 | 80 | – | – | – |
| CC(=O)N1CCC(NC(=O)Nc2cccc(F)c2)CC1 [Compound 32, 1-(1-Acetyl-piperidin-4-yl)-3-(3-fluoro-phenyl)-urea] | 112 to 114 | 80 | – | – | – |
| O=C(Nc1ccc(Cl)cc1)NC1CCN(C(=O)c2ccc(N3CCOCC3)cc2)CC1 [Compound 36, 1-(4-Chlorophenyl)-3-(1-(4-morpholinobenzoyl)piperidin-4-yl)urea] | 303 to 308 | – | 95 | – | – |
| O=C(Nc1ccc(C(F)(F)F)cc1)NC1CCN(C(=O)c2ccc(N3CCOCC3)cc2)CC1 [Compound 37, 1-(1-(4-Morpholinobenzoyl)piperidin-4-yl)-3-(4-(trifluoromethyl)phenyl)urea] | 312 to 315 | – | 98 | – | – |
| CC(C)(C)OC(=O)C(C)(C)Oc1ccc(C(=O)N2CCC(NC(=O)Nc3ccc(C(F)(F)F)cc3)CC2)cc1 [Compound 38, Tert-butyl 2-methyl-2-(4-(4-(3-(4-(trifluoromethyl)phenyl)ureido)piperidine-1-carbonyl)phenoxy)propanoate] | 206 to 208 | – | 89 | – | – |
| Cc1nc(C(=O)N2CCC(NC(=O)Nc3ccc(C(F)(F)F)cc3)CC2)c(C)o1 [Compound 39, 1-(1-(2,5-Dimethyloxazole-4-carbonyl)piperidin-4-yl)-3-(4-(trifluoromethyl)phenyl)urea] | 217 to 219 | – | 92 | – | – |
| CC(C)(Oc1ccc(C(=O)N2CCC(NC(=O)Nc3ccc(C(F)(F)F)cc3)CC2)cc1)C(=O)O [Compound 40, 2-Methyl-2-(4-(4-(3-(4-(trifluoromethyl)phenyl)ureido)piperidine-1-carbonyl)phenoxy)propanoic acid] | 197 to 199 | – | 68 | – | – |
| CC(C)(C)C(=O)N1CCC(NC(=O)Nc2ccc(C(F)(F)F)cc2)CC1 [Compound 41, 1-(1-Pivaloylpiperidin-4-yl)-3-(4-(trifluoromethyl)phenyl)urea] | 263 to 265 | – | 97 | – | – |
| CC(C)(O)CCC(=O)N1CCC(NC(=O)Nc2ccc(C(F)(F)F)cc2)CC1 [Compound 47, 1-(1-(4-hydroxy-4-methylpentanoyl)piperidin-4-yl)-3-(4-(trifluoromethyl)phenyl)urea] | 184 to 186 | – | – | 93 | – |
| O=C(Nc1ccc(C(F)(F)F)cc1)NC1CCN(C(=O)CCO)CC1 [Compound 49, 1-(1-(3-hydroxypropanoyl)piperidin-4-yl)-3-(4-(trifluoromethyl)phenyl)urea] | 158 to 160 | – | – | 90 | – |
| O=C(Nc1ccc(C(F)(F)F)cc1)NC1CCN(S(=O)(=O)CCCO)CC1 [Compound 50, 1-(1-(3-hydroxypropylsulfonyl)piperidin-4-yl)-3-(4-(trifluoromethyl)phenyl)urea] | 200 to 205 | – | – | 98 | – |
| COCC(=O)N1CCC(NC(=O)Nc2ccc(C(F)(F)F)cc2)CC1 [Compound 51, 1-(1-(2-methoxyacetyl)piperidin-4-yl)-3-(4-(trifluoromethyl)phenyl)urea] | 214 to 215 | – | – | – | 100 |
| CC(C)(C)[S+]([O-])N1CCC(NC(=O)Nc2ccc(C(F)(F)F)cc2)CC1 (centres unmarked) [Compound 52, 1-(1-(tert-butylsulfinyl)piperidin-4-yl)-3-(4-(trifluoromethyl)phenyl)urea] | 229 to 230 | – | – | 94 | – |
| O=C(Nc1ccc(C(F)(F)F)cc1)NC1CCN(C(=O)CCCO)CC1 [Compound 53, 1-(1-(4-hydroxybutanoyl)piperidin-4-yl)-3-(4-(trifluoromethyl)phenyl)urea] | 175 to 182 | – | – | 100 | – |
| CC(C)(C)S(=O)(=O)N1CCC(NC(=O)Nc2ccc(C(F)(F)F)cc2)CC1 [Compound 54, 1-(1-(tert-butylsulfonyl)piperidin-4-yl)-3-(4-(trifluoromethyl)phenyl)urea] | 260 to 261 | – | – | 97 | – |
| O=C(Nc1ccc(C(F)(F)F)cc1)NC1CCN(C(=O)N2CCOCC2)CC1 [Compound 55, 1-(1-(morpholine-4-carbonyl)piperidin-4-yl)-3-(4-(trifluoromethyl)phenyl)urea] | 234 to 236 | – | – | – | 43 |
